From patent publication US20260263429A1, “INHIBITORS OF CA 2+/CALMODULIN-DEPENDENT PROTEIN KINASE II (CAMKII) THAT DO NOT INHIBIT LONG-TERM POTENTIATION (LTP) INDUCTION AND THERAPEUTIC USES THEREOF” (The Regents of the University of Colorado, A Body Corporate, priority 2023, published 2026)

Tests used:
[1] = test system: paCaMKII T286A movement to synapses and spine growth; assay: Photoactivation of paCaMKII T286A in hippocampal neurons (structural LTP); assay type: cell-based; conditions: AS283 10 μM; AS397
Excerpt: In this Example, two sets of pharmacogenetic tools were used in combination with the photoactivable paCaMKII to test whether structural CaMKII functions are not only the necessary but also the sufficient CaMKII functions in LTP. Specifically, in one exemplary method, hippocampal neurons were examined for sLTP (e.g., the LTP-associated growth of dendritic spines) in response to direct photoactivation of paCaMKII without any other stimulation that could trigger additional signaling pathways. […] In both cases, suppressing enzymatic CaMKII activity while allowing or enhancing GluN2B binding enabled induction of structural LTP. […]
(§1) paCaMKII stimulation in hippocampal neurons. […] Neurons were then imaged 15 minutes after stimulation and assessed for CaMKII synaptic enrichment and dendritic spine growth.
(§2) Image analysis of hippocampal neurons. […] 2D maximum intensity projection images were then generated and analyzed using a custom-build program in ImageJ. The program utilizes combinatorial thresholding to mask regions of the cell that contain high intensity PSD-95 puncta (the post-synaptic side of excitatory synapses in dendritic spines) and regions of the dendritic shaft that contain no fluorescence intensity of PSD-95. […] Spine growth was assessed by measuring the changes in mCherry cell fill fluorescence intensity within dendritic spine ROIs (F/F0).

[2] = test system: GFP-CaMKII synaptic enrichment (mCh-PSD95 intrabody); assay: cLTP-induced CaMKII movement to excitatory synapses in dissociated rat hippocampal cultures; assay type: cell-based; conditions: 10 μM inhibitor; cLTP 100 μM glutamate, 10 μM glycine, 45 seconds
[3] = test system: CaMKII movement to excitatory synapses; assay: cLTP-induced CaMKII movement to excitatory synapses in the presence of soluble oligomeric Aβ; assay type: cell-based; conditions: 0.5 μM Aβ, inhibitor 10 μM, 45 minutes prior to cLTP
[4] = target: CaMKII F89G binding to GluN2B (Homo sapiens, UniProt Q9UQM7, F89G); assay: In vitro binding of CaMKII F89G to GluN2B; conditions: NM-PP1
Excerpt: This conclusion also predicts that the LTP stimulus-induced movement of CaMKII to excitatory synapses should be (i) impaired in the CaMKII F89G mutant; but (ii) normalized by pharmacogenetic rescue with NM-PP1. Indeed, both predictions were observed experimentally (FIGS. 4D-4E).
CaMKII binding to GluN2B in vitro. CaMKII/GluN2B binding assays were done as described. Briefly, GST-GluN2B-c-tail (GST-2BC) was immobilized on anti-GST-antibody-coated microtiter plates (Thermo Scientific), blocked for 30 min with 5% BSA, and then overlaid with […] CaMKII (subunit concentration) in PIPES-buffered saline (pH 7.2) containing: 2 mM Ca^2+, 1 μM CaM, 1 mM Mg^2+, 0.1% BSA, 0.1% Tween-20 for 20 min at room temperature. Addition of 1 mM ADP, 1 mM ATP, 10 μM AS283 (or AS105) or […] NM-PP1 was added accordingly (see figure legends). After extensive washes in buffer containing 1 mM EGTA, GST-2BC and bound CaMKII was eluted for 10 min in SDS-loading buffer at 95° C. Bound CaMKII was measured via immunoblot.

[5] = test system: paCaMKII F89G movement to synapses and spine growth; assay: Photoactivation of paCaMKII F89G in hippocampal neurons (structural LTP); assay type: cell-based; conditions: NM-PP1 10 μM
Excerpt: In this Example, two sets of pharmacogenetic tools were used in combination with the photoactivable paCaMKII to test whether structural CaMKII functions are not only the necessary but also the sufficient CaMKII functions in LTP. Specifically, in one exemplary method, hippocampal neurons were examined for sLTP (e.g., the LTP-associated growth of dendritic spines) in response to direct photoactivation of paCaMKII without any other stimulation that could trigger additional signaling pathways. […] In both cases, suppressing enzymatic CaMKII activity while allowing or enhancing GluN2B binding enabled induction of structural LTP.
as §1, §2

CaMKII F89G binding to GluN2B, sequence (Q9UQM7 whole entry F89G): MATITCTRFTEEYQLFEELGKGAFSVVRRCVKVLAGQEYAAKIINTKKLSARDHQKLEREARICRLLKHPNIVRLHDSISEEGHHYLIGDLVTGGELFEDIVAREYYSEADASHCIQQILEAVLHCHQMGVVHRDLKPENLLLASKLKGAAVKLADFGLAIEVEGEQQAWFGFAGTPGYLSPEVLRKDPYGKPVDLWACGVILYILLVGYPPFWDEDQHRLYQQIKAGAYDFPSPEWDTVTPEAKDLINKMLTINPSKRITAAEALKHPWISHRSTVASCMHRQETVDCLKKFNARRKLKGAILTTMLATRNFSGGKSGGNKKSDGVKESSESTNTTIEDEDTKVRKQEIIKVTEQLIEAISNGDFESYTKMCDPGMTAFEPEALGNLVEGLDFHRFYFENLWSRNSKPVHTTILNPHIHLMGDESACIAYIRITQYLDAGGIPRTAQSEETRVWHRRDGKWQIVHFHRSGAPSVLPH
CaMKII F89G binding to GluN2B, sequence (Q13224 836-1484 partner limits assumed): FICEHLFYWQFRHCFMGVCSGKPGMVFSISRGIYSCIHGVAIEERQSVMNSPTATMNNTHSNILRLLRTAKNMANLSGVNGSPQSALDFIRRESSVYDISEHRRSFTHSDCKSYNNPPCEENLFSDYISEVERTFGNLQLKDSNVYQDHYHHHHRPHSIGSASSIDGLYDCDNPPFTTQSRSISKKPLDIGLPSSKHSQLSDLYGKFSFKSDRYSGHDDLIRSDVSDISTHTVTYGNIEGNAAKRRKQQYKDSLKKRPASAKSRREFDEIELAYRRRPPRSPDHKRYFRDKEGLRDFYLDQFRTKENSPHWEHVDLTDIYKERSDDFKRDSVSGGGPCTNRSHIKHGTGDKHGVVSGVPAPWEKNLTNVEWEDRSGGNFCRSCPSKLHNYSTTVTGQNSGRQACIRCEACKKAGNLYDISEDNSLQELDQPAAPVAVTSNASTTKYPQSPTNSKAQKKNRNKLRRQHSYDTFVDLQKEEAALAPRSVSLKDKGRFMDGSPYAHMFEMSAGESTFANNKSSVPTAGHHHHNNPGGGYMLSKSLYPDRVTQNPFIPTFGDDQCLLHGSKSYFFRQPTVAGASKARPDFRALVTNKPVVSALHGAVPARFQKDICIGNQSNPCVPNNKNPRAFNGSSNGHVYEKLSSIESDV

Row | Structure (SMILES) | CaMKII movement to synapses after photoactivation of paCaMKII T286A [1] | spine growth (structural LTP) after photoactivation of paCaMKII T286A [1] | cLTP-induced CaMKII co-localization/movement to excitatory synapses in hippocampal neurons [2] | rescue of Aβ-blocked cLTP-induced movement of CaMKII to the synapses [3] | binding of CaMKII F89G to GluN2B in vitro [4] | CaMKII movement after photoactivation of paCaMKII F89G [5]
1 | NCCNc1cccc(-c2ccnc3[nH]c4ccccc4c23)c1 [AS283] | robust CaMKII movement | spine growth | failed to inhibit CaMKII binding to GluN2B | rescued |  | 
2 | CC(C)(C)n1nc(Cc2cccc3ccccc23)c2c(N)ncnc21 [NM-PP1] |  |  |  |  | enabled binding of CaMKII F89G to GluN2B also in vitro | enabled similar movement
